Columns and labels:
[1] = test system: human UCB derived CD34+ cells; experiment: Short-term serum-free, cytokine supplemented expansion of UCB derived CD34+ cells with pomalidomide; format: cell-based; settings: for CD34+ phenotype in the expanded population / CD133 level of expanded CD34+ cells / expanded CD34+ cells that are CD38 negative / total nucleated cell expansion: pomalidomide 2.7 μg/mL, 12 days
Description: The ability of pomalidomide to enhance the expansion of human UCB derived CD34^+ cells in a short-term serum-free, cytokine supplemented culture system was evaluated. CD34^+ progenitor cells were enriched from cryopreserved UCB units to >90% purity and seeded (104 CD34^+ cells) in 1 mL of growth medium, which consists of IMDM plus serum substitute BIT (BSA, recombinant human insulin and transferrin, 20%), in the presence of SCF (50 ng/mL), Flt-3 ligand (50 ng/mL), and IL-3 (10 ng/mL). Pomalidomide, dissolved in DMSO, was supplemented at 2.7 μg/mL. The culture was incubated at 37° C., 5% CO2 for 12 days, with fresh medium added at day 7. Pomalidomide-free cultures with or without DMSO (0.05% v/v) were used as controls.

CD34+ cells = experiment: Scaled-up pomalidomide-based CD34+ expansion in gas-permeable culture bag; format: cell-based, human
Description: CD34^+ cells were seeded in 10^4/mL pomalidomide-supplemented medium in a flexible, gas-permeable fluorocarbon culture bag (American Fluoroseal). After 7 days of incubation, the culture was centrifuged and exchanged with fresh pomalidomide-supplemented medium at three times the initial volume. By day 12, TNC and CD34^+ expansion were 350 (range: 250-700) and 200 (range: 100-450) fold, respectively (FIG. 4). Viability was 86% (range: 80-90%) by trypan blue. A total of 20 million CD34^+ cells were harvested.

[2] = day 12, culture bag, seeded 10^4/mL

Nc1cccc2c1C(=O)N(C1CCC(=O)NC1=O)C2=O (stereo not shown) [pomalidomide, 4-(Amino)-2-(2,6-dioxo(3-piperidyl))-isoindoline-1,3-dione]
CD34+ expression in the expanded population versus control ([1]; first experiment): significantly higher CD34^+ expression
CD38 expression on cultured cells ([1]; first experiment): appeared to down-regulate CD38 expression
cumulative colony forming units relative to expanded controls ([1]; first experiment): substantial improvement
CD34+ phenotype in the expanded population ([1]; first experiment): 40-60%
CD133 level of expanded CD34+ cells ([1]; first experiment): 15%
expanded CD34+ cells that are CD38 negative ([1]; first experiment): 95%
total nucleated cell expansion ([1]; first experiment): 200-350 fold
CD34+ phenotype in the expanded population ([1]; second similar experiment): 40-60%
CD133 level of expanded CD34+ cells ([1]; second similar experiment): 11.5%
expanded CD34+ cells that are CD38 negative ([1]; second similar experiment): 97%
total nucleated cell expansion ([1]; second similar experiment): 200-350 fold
CD34+ expression in the expanded population versus control ([1]; second similar experiment): significantly higher CD34^+ expression
CD38 expression on cultured cells ([1]; second similar experiment): appeared to down-regulate CD38 expression
cumulative colony forming units relative to expanded controls ([1]; second similar experiment): substantial improvement
ex-vivo expansion of placental derived CD34+ progenitors (CD34+ cells): significantly enhanced
Viability by trypan blue (CD34+ cells; day 12, culture bag): 86% (range: 80-90%)
total CD34+ cells harvested (CD34+ cells; day 12, culture bag): 20 million
CD34+ expansion (CD34+ cells; [2]): 200 (range: 100-450) fold
TNC expansion (CD34+ cells; [2]): 350 (range: 250-700) fold

Reference: patent US9255248B2, “Method of producing erythrocytes without feeder cells” (Anthrogenesis Corporation, priority 2009, dated 2016)
